According to patent US7026292B1, “Compositions and therapeutic methods using morphogenic proteins and stimulatory factors” (Stryker Corporation, priority 1995, dated 2006):

Test system: FRC (fetal rat calvarial) cells
Experiment: Alkaline phosphatase (AP) activity assay in FRC cells
Assay type: cell-based
Conditions: for MPSF function in concert with OP-1 (figure title): OP-1 200 ng/ml (FIGS. 5–10); for Stimulation of OP-1 osteogenic induction (figure title): OP-1 500 ng/ml (FIG. 1, FIG. 11)
Protocol: A preferred assay for testing potential MPSFs with OP-1 for osteogenic activity is the alkaline phosphatase (AP) enzymatic assay. AP is an osteoblast differentiation marker in primary osteoblastic FRC. (fetal rat calvarial) cells. The OP-1-stimulated AP activity is the result of increased steady-state AP mRNA levels as measured by Northern analysis. The procedure is generally as follows.
Primary osteoblast cell cultures were prepared from fetal rat calvaria using published procedures (M. A. Aronow et al., J. Cell Physiol., 143, pp. 213–221 (1990); T. K. McCarthy et al., J. Bone Miner. Res., 3, pp. 401–8 (1988)). Briefly, cells were harvested by sequential collagenase digestions of the calvarium and cells from digestions III to V were pooled. Fetal rat calvaria (FRC) cells were plated in complete medium (MEM, alpha; GIBCO/BRL, Grand Island, N.Y.) containing 10% fetal bovine serum, vitamin C (100 μg/ml), and antibiotics (100 U/ml penicillin, and […]). Cultures were incubated at 37° C. with 95% air/5% CO2 for several days to reach confluence. Cells were then subcultured for experimentations.
FRC cells were subcultured in 48-well plates (COSTAR, Cambridge, Mass.) in complete MEM medium with 10% fetal bovine serum until confluent in about 4 days. Confluent cells were rinsed with Hank's balanced salt solution (HBSS) and treated with serum-free α-MEM medium (with 0.1% BSA, 100 U/ml penicillin, and […]) containing the appropriate solvent vehicle (50% acetonitrile/0.1% trifluoroacetic acid for OP-1 treatment or 0.1N acetic acid for IGFI treatment) or recombinant human OP-1, or IGFI at the concentrations indicated. Solvent vehicle concentration in the culture medium never exceeded 0.1%. At the end of treatment, cells were lysed and total cellular alkaline phosphatase activity was measured (typically after 48 hours of treatment).
Total cellular alkaline phosphatase activity was determined using a commercial assay kit (Sigma, St. Louis, Mo.). Cell lysates were prepared by aspirating the medium from the 48-well plate, rinsing the cells with ice-cold PBS, and lysing the cells with 0.05% Triton X-100 and sonication for 60 sec. Alkaline phosphatase activity in the lysates was measured in 2-amino-2-methyl-1-propanol buffer (pH 10.3) with p-nitrophenyl phosphate as substrate at 37° C. Reactions were performed in 96-well plates for 1–2 h. Following color development, reactions were terminated with 0.5N NaOH. Absorbance of the reaction was measured at 405 nm using a Hewlett Packard Genenchem automatic plate reader. Total protein level in the lysates was measured according to Bradford (M. Bradford, Anal. Biochem., 72, pp. 248–54 (1976)) using bovine serum albumin as a standard. Alkaline phosphatase activity was expressed as nmol p-nitrophenol liberated per microgram of total cellular protein. […]
At least four experimental groups were tested: control cells treated with no OP-1 or MPSF; group I cells treated with increasing concentrations of MPSF alone; […]; and group III cells, […] concentrations of the MPSF.

[1] = 0.5 nM HC + 200 ng/ml OP-1, 48 hours (FIG. 7)
[2] = PG 5 nM + 200 ng/ml OP-1, 48 hours (FIG. 10)
[3] = IGF-I + OP-1 500 ng/ml (FIG. 1)
[4] = 0.05 nM or 0.5 nM insulin + 200 ng/ml OP-1, 48 hours (FIG. 8)

C[C@]12CCC(=O)C=C1CC[C@@H]1[C@@H]2[C@@H](O)C[C@@]2(C)[C@H]1CC[C@]2(O)C(=O)CO [HC, hydrocortisone, reference compound]
Level of AP activity relative to cells treated with OP-1 alone [1]: about two-fold | Level of AP activity relative to control cells [1]: about three-fold | MPSF function in concert with OP-1 (figure title) (AP activity in FRC cells): is a MPSF in concert with OP-1 | Stimulation of AP activity by HC alone (HC 0.05–5 nM alone, 48 hours (FIG. 7)): did not stimulate AP activity

CC(=O)[C@H]1CC[C@H]2[C@@H]3CCC4=CC(=O)CC[C@]4(C)[C@H]3CC[C@]12C [PG, progesterone, reference compound]
MPSF function in concert with OP-1 (figure title) (AP activity in FRC cells): is a MPSF in concert with OP-1 | Level of AP activity relative to cells treated with OP-1 alone [2]: about two-fold | Level of AP activity relative to control cells [2]: about four-fold | Stimulation of AP activity beyond control cells (PG alone 5 nM, 48 hours (FIG. 10)): about three-fold

IGF-I: insulin-like growth factor I, tested as morphogenic protein stimulatory factor (MPSF)
Stimulation of OP-1 osteogenic induction (figure title) (AP activity in FRC cells): stimulates OP-1 osteogenic induction | Potentiation of OP-1-stimulated AP activity by IGF-I (IGF-I 10 ng/ml, OP-1 100 ng/ml (FIG. 3)): 1.5–2 fold | Synergistic effect on AP level, timing of IGF-I addition (IGF-I 25 ng/ml added 6 h or later after OP-1 500 ng/ml, 48 h (FIG. 4)): reduced significantly | Maximum enhancement of OP-1-stimulated AP activity by IGF-I (IGF-I 25 ng/ml, OP-1 200 ng/ml (FIG. 3)): about 2.5 fold | Stimulation of AP activity by IGF-I in the absence of OP-1 (IGF-I 1–100 ng/ml, no OP-1 (FIG. 3)): did not stimulate AP activity | Enhancement of OP-1-stimulated AP activity by IGF-I [3]: 3–4 fold | Kind of stimulatory effect of IGF-I on OP-1-stimulated AP activity [3]: synergistic | Potentiation of OP-1-stimulated AP activity at higher IGF-I concentrations (IGF-I above 25 ng/ml (up to 100 ng/ml) with OP-1 (FIG. 3)): no longer potentiates | Synergistic effect on AP level, timing of IGF-I addition (OP-1 500 ng/ml and IGF-I 25 ng/ml added simultaneously, 48 h (FIG. 4)): maximum synergistic effect | Stimulation of AP activity by IGF-I alone (exogenous IGF-I alone up to 300 ng/ml, no OP-1 (FIG. 1)): did not stimulate AP activity | Synergistic effect on AP level, timing of IGF-I addition (pre-incubation with IGF-I 25 ng/ml for 24 h followed by OP-1 500 ng/ml): abolishes the synergistic effect

IGF-II: member of the IGF growth factor family
Stimulation of OP-1 osteogenic induction (figure title) (AP activity in FRC cells): does not stimulate OP-1-induced osteogenic induction | Effect of IGF-II on OP-1-stimulated increase in AP activity (IGF-II 10–300 ng/ml + OP-1 500 ng/ml (FIG. 11)): neither enhanced nor inhibited | Effect of IGF-II on the synergistic effect of IGF-I on OP-1 (IGF-II (925 ng/ml as printed) + IGF-I 25 ng/ml + OP-1 500 ng/ml): does not further potentiate

TGF-β
Stimulation of OP-1-induced osteogenic induction (figure title) (AP activity in FRC cells, OP-1 100, 200 or 500 ng/ml (FIG. 12)): does not stimulate OP-1-induced osteogenic induction | Synergistic effect of TGF-β with OP-1 on AP activity (TGF-β 0.05–3.0 ng/ml with OP-1 (FIG. 12)): did not exhibit any synergistic effect | Stimulation of AP activity by TGF-β alone (TGF-β alone, no OP-1 (FIG. 12)): did not stimulate AP activity

hGH: growth hormone (hGH), purchased from Sigma
MPSF function in concert with OP-1 (figure title) (AP activity in FRC cells): is a MPSF in concert with OP-1 | Induction of AP activity over OP-1 alone (all hGH concentrations tested (10–1000 ng/ml) + 200 ng/ml OP-1, 48 hours (FIG. 6)): stimulated the induction of AP activity | Concentration dependence of hGH stimulation of AP activity (higher versus lower hGH concentrations + 200 ng/ml OP-1, 48 hours (FIG. 6)): more of a stimulatory effect

insulin: insulin, purchased from Sigma
Level of AP activity relative to cells treated with OP-1 alone [4]: about two-fold | Level of AP activity relative to control cells [4]: about four-fold | MPSF function in concert with OP-1 (figure title) (AP activity in FRC cells): is a MPSF in concert with OP-1 | Stimulation of AP activity by insulin alone (insulin 0.05–5 nM alone, 48 hours (FIG. 8)): did not stimulate AP activity
